In PMC3559867, “Metabolites of Ginger Component [6]-Shogaol Remain Bioactive in Cancer Cells and Have Low Toxicity in Normal Cells: Chemical Synthesis and Biological Evaluation” (PLoS ONE, 2013):
pIC50: −log10 of the molar value.

Key:
[1] = tested on: IMR-90 human normal lung cells; assay: MTT cytotoxicity, normal lung cells IMR-90; assay type: cell-based; details: 24 h treatment, toxicity to normal cells
Protocol: (§1) Cell growth inhibition was determined by a MTT colorimetric assay. Human colon cancer cells HCT-116, human lung cancer cells H-1299, human colon fibroblast cells CCD-18Co, and human lung fibroblast cells IMR-90 were plated in 96-well microtiter plates with 3000 cells/well and allowed to attach for 24 h at 37°C. […] After the cells were cultured for 24 h, the medium was aspirated and cells were treated with 200 µL fresh medium containing 2.41 mmol/L MTT. […] The reading reflected the number of viable cells and was expressed as a percentage of viable cells in the control. Both HCT-116 and H-1299 cells were cultured in McCoy’s 5A medium. CCD-18Co and IMR-90 cells were cultured in Eagle’s modified essential medium (EMEM). All of the above media were supplemented with 10% fetal bovine serum, 1% penicillin/streptomycin, and 1% glutamine, and the cells were kept in a 37°C incubator with 95% humidity and 5% CO2.

[2] = tested on: CCD-18Co human normal fibroblast colon cells; assay: MTT cytotoxicity, normal colon cells CCD-18Co; assay type: cell-based; details: 24 h treatment, toxicity to normal cells
Protocol: as §1

[3] = tested on: HCT-116 human colon cancer cells; assay: MTT growth inhibition, HCT-116; assay type: cell-based; details: 24 h treatment, 0 to 80 µM
Protocol: as §1

[4] = tested on: H-1299 human lung cancer cells; assay: MTT growth inhibition, H-1299; assay type: cell-based; details: 24 h treatment, 0 to 80 µM
Protocol: as §1

H-1299 cells = assay: TUNEL apoptosis assay, H-1299; assay type: cell-based, human; details: H-1299, 24 hours of incubation, 20 or 40 µM, versus DMSO; M2 not significant at 20 µM
Protocol: (§2) HCT-116 and H1299 cells were seeded in 6-well plates at 1.10^5 cells/well and incubated at 37°C in 5% CO2 incubator. After 24 hours, fresh media supplemented with DMSO (control), [6]-shogaol, M2, M6, or M13 metabolites (20 µM or 40 µM) were added to the wells. After 6 or 24 hours incubation at 37°C in 5% CO2 incubator, cells were washed and pre-treated for 15 min at room temperature with a solution of 20 µg/ml proteinase K. Cells were then washed twice with phosphate buffer saline pH 7.4 (PBS) and fixed for 10 min at room temperature using 10% neutral formaldehyde solution. After 2 washes in ddH2O, cells were resuspended in 100 µL ddH2O and applied on silanized microscope slides. Slides were incubated overnight at 37°C, and washed twice with PBS. TUNEL assay was then carried out according to the manufacturer’s protocol. Cells were observed under 400X power using a Zeiss microscope A1 (Thornwood, NY). 10 fields per slide were evaluated, and TUNEL+ cells (with brown coloration in the nucleus) were expressed as a percentage of the total number of cells contained in a field.

HCT-116 cells = assay: TUNEL apoptosis assay, HCT-116; assay type: cell-based, human; details: 20 or 40 µM, versus DMSO
Protocol: as §2

[5] = HCT-116, 24 hours of incubation

pIC50 [3] | pIC50 ([4]; Homo sapiens, NCI-H1299, 24 h) | pIC50 [4] | SMILES | pIC50 [1] | pIC50 [2] | induction of apoptosis (TUNEL positive cells) (H-1299 cells) | induction of apoptosis (TUNEL positive cells) (HCT-116 cells; HCT-116, 6 hours of incubation) | induction of apoptosis (TUNEL positive cells) (HCT-116 cells; [5])
< 4.00 | < 4.00 | – | CCCCCC(CC(=O)CCc1ccc(O)c(OC)c1)OC (stereo not drawn) [M7, 5-methoxy-1-(4'-hydroxy-3'-methoxyphenyl)-decan-3-one] | < 4.00 | < 4.00 | – | – | –
4.23 | < 4.00 | – | CCCCCCCC(=O)CCc1ccc(O)c(O)c1 [M8, 1-(3',4'-dihydroxyphenyl)-decan-3-one] | < 4.00 | < 4.00 | – | – | –
4.09 | 4.08 | – | CCCCCCCC(O)CCc1ccc(O)c(OC)c1 (stereo not drawn) [M9, 1-(4'-hydroxy-3'-methoxyphenyl)-decan-3-ol] | < 4.00 | < 4.00 | – | – | –
4.11 | 4.22 | – | CCCCCC(CC(=O)CCc1ccc(O)c(OC)c1)SC (stereo not drawn) [M10, 5-methylthio-1-(4'-hydroxy-3'-methoxyphenyl)-decan-3-one] | < 4.00 | < 4.00 | – | – | –
4.08 | 4.18 | – | CCCCCCCC(=O)CCc1ccc(O)c(OC)c1 [M11, 1-(4'-hydroxy-3'-methoxyphenyl)-decan-3-one] | < 4.00 | < 4.00 | – | – | –
4.74 | 4.75 | – | CCCCC/C=C/C(=O)CCc1ccc(O)c(OC)c1 [[6]-shogaol] | 4.44 | 4.36 | significantly superior to that of both M2 and M13 | significantly higher levels of apoptosis | significantly superior to that of both M2 and M13

The remaining lines, values behind:

SMILES | pIC50 [3] | pIC50 ([4]; Homo sapiens, NCI-H1299, 24 h) | pIC50 [4] | pIC50 [1] | pIC50 [2] | induction of apoptosis (TUNEL positive cells) (H-1299 cells) | induction of apoptosis (TUNEL positive cells) (HCT-116 cells; HCT-116, 6 hours of incubation) | induction of apoptosis (TUNEL positive cells) (HCT-116 cells; [5])
CCCCCC(CC(O)CCc1ccc(O)c(OC)c1)SCC(N)C(=O)O (stereo not drawn) [M1, 5-cysteinyl-M6] | < 4.00 | < 4.00 | – | < 4.00 | < 4.00 | – | – | –
CCCCCC(CC(=O)CCc1ccc(O)c(OC)c1)SCC(N)C(=O)O (stereo not drawn) [M2, 5-cysteinyl-[6]-shogaol] | 4.61 | 4.59 | 4.61 | 4.01 | 4.00 | Significant apoptosis | significantly higher levels of apoptosis | Significant apoptosis
CCCCCC(CC(O)CCc1ccc(O)c(OC)c1)SCC(NC(C)=O)C(=O)O (stereo not drawn) [M4, 5-N-acetylcysteinyl-M6] | < 4.00 | < 4.00 | – | < 4.00 | < 4.00 | – | – | –
CCCCCC(CC(=O)CCc1ccc(O)c(OC)c1)SC[C@H](NC(C)=O)C(=O)O (stereo partly drawn) [M5, 5-N-acetylcysteinyl-[6]-shogaol] | 4.27 | 4.14 | 4.27 | < 4.00 | < 4.00 | – | – | –
CCCCCC=CC(O)CCc1ccc(O)c(OC)c1 (stereo not drawn) [M6, 1-(4'-hydroxy-3'-methoxyphenyl)-4-decen-3-ol] | 4.16 | 4.21 | 4.16 | < 4.00 | < 4.00 | did not display any apoptotic effect | – | did not display any apoptotic effect
CCCCCC(CC(O)CCc1ccc(O)c(OC)c1)SC (stereo not drawn) [M12, 5-methylthio-1-(4'-Hydroxy-3'-methoxyphenyl)-decan-3-ol] | < 4.00 | 4.16 | – | < 4.00 | < 4.00 | – | – | –
CCCCCC(CC(=O)CCc1ccc(O)c(OC)c1)SCC(NC(=O)CCC(N)C(=O)O)C(=O)NCC(=O)O (stereo not drawn) [M13, 5-glutathiol-[6]-shogaol] | 4.34 | 4.32 | – | 4.24 | 4.12 | Significant apoptosis | significantly higher levels of apoptosis | Significant apoptosis
CCCCC[C@@H](CC(=O)CCc1ccc(O)c(OC)c1)SC[C@H](NC(=O)CC[C@H](N)C(=O)O)C(=O)NCC(=O)O [M13-1] | 4.15 | 4.13 | – | – | – | – | higher level of apoptosis | –
CCCCC[C@H](CC(=O)CCc1ccc(O)c(OC)c1)SC[C@H](NC(=O)CC[C@H](N)C(=O)O)C(=O)NCC(=O)O [M13-2] | 4.26 | 4.20 | – | – | – | – | higher level of apoptosis | –
